Data: US7060486B2, “Inhibition of sulfate-reducing-bacteria-mediated degradation using bacteria which secrete antimicrobials” (priority 1998, dated 2006)
Entries after “also recorded” stand apart in the source; their conditions may differ. Bridge positions count the residues as written; N and C are the ends. Square brackets hold non-standard residues; d marks the D form. Peptide text beside a SMILES is read from it. * marks the point of attachment. X1 = CC[C@H](C)CCCCC(=O)*; Dab = NCC[C@H](N)C(=O)O

How the values were obtained:
[1] = system: D. vulgaris (ATCC 29579); experiment: SRB inhibitory assay: viability after one-hour exposure, MPN technique; assay type: cell-based; settings: one-hour exposure
Protocol: (§1) D. vulgaris (ATCC 29579) and D. gigas (ATCC 19364) were obtained from the American Type Culture Collection and cultivated in 15 mL screwcap tubes with 10 mL of modified Baar's medium (ATCC medium 1249) supplemented with 100 μL each of the oxygen-scavengers 4% sodium sulfide and Oxyrase (Oxyrase Inc., Mansfeld, Ohio). Initial cultures were grown from −85° C. glycerol stocks; all subsequent cultures were grown with a 3% inoculum from the initial culture maintained at 30° C. without shaking. […] SRB were also cultured periodically in the presence of 0.1% ferrous ammonium sulfate, and the presence of these sulfate-reducers was confirmed by the detection of black iron sulfide in the culture tubes. The desulfoviridin assay was also performed after each MPN assay to confirm the presence of D. vulgaris or D. gigas by its red color under UV light due to the release of the chromophore of the pignment desulfoviridin. (Postgate, 1984).
(§2) For determining the viability indices (Romeo, et al., 1988) of SRB, a late-exponential phase culture (O.D600 0.16 to 0.19 which corresponded to an initial cell number of 5–9×10^4 cells/mL) was exposed to various concentrations of antimicrobials for 1 hour at 30° C. One mL of cells was harvested, washed once in fresh modified Baar's medium to remove cellular debris, and resuspended in 1 mL of fresh modified Baar's medium supplemented with 10 μL each of Oxyrase (Oxyrase Inc., Mansfeld, Ohio) and 4% sodium sulphide. Aliquots of 450 μL were dispensed in 500 μL sterile eppendorf tubes and appropriate amounts of antimicrobials added and incubated at 30° C. The effectiveness of treatment was determined by the multiple-tube most-probable-number (MPN) fermentation technique. (Anonymous. Multiple-tube fermentation technique for members of the coliform group, pp. 9–45 to 9–51. In A. E. Greenberg, L. S. Clesceri, and A. D. Eaton (eds.), Standard Methods for the Examination of Water and Wastewater, 18 ed. American Public Health Association, American Water Works Association, and Water Pollution Control Federation, New York (1992)) (hereafter, Greenberg, 1992).
(§3) The MPN test for enumerating SRB was performed in three 12 mL tubes with a 1000 μL inoculum of SRB, three 12 mL tubes with a 500 μL inoculum, and three 12 mL tubes with a 100 μL inoculum. All nine tubes contained a final volume of 10 mL of modified Baar's medium supplemented with 100 μL each of 4% sodium sulfide and Oxyrase (Oxyrase Inc., Mansfeld, Ohio). The tubes were monitored for 72 hours to determine the number of tubes that were positive for growth. Growth was determined by the increase in culture turbidity, and the MPN index/mL was calculated using the Thomas formula. (Greenberg 1992).

[2] = system: D. vulgaris; experiment: Susceptibility of SRB cultures to antibiotics and inorganics; assay type: cell-based
Protocol: (§4) D. vulgaris and D. gigas were incubated in the presence of various antimicrobial peptides, and their viability after one-hour exposure was determined. […] D. gigas was inhibited by anthraquinone at 100 μg/mL (Cooling et al., 1996), and both SRB were inhibited by sodium molybdate at 100 μg/mL. This is similar to the observation of Saleh, et al., 1964, who surveyed nearly 200 compounds for their SRB-inhibitory activity and noted that SRB show a high degree of resistance to inhibitory compounds (Id.).

[3] = system: P. fragi K; experiment: Growth of P. fragi K in overnight suspension cultures with antimicrobials; assay type: cell-based; settings: 100 μg/mL, overnight suspension culture
[4] = system: SRB (D. vulgaris) on 304 stainless steel; experiment: Continuous reactor with 304 stainless steel and SRB, electrochemical impedance spectroscopy
Protocol: Batch culture corrosion experiments using SAE 1018 mild steel coupons (2.5 cm diameter, 1.2 mm thick) were performed in triplicates in 250 mL Erlenmeyer flasks at 30° C. without shaking as described previously (Jayaraman et al., 1997a). A continuous reactor (Jayaraman et al., 1997c) was also used to develop biofilms on 304 stainless steel and monitor corrosion using electrochemical impedance spectroscopy (EIS) in a minimum of two independent reactors using a Solarton-Schlumberger electrochemical measurement unit (SI 1280, Schlumberger Technical Instruments Division, San Jose, Calif.) interfaced to a Macintosh computer (PowerMac 7100/80, Apple Computers, Cupertino, Calif.) running EISIS electrochemical experimentation software (University of California, Irvine) (similar commercial software, THALES, can also be used). The open circuit potential (OCP) was measured as the potential between the metal specimen and a Ag/AgCl reference electrode, and the polarization resistance (Rp) was determined as the low-frequency value of the impedance (where the imaginary part of the impedance was zero or negligible). Continuous culture corrosion rates were estimated as the inverse of the polarization resistance (Macdonald, D. D. and M. C. H. McCubre, Applications of impedance spectroscopy, p. 262–267. In J. R. Macdonald (ed.), Impedance spectroscopy: Emphasizing solid materials and systems, John Wiley & Sons, New York (1987); Stem, M., Journal of Electrochemical Society, 105(11):638–647 (1958)).
A continuous reactor was used to develop biofilms on metal surfaces as previously described (Jayaraman et al., 1997c). Electrochemical impedance spectroscopy (EIS) was used to obtain impedance data in at least duplicate experiments using a Solarton-Schlumberger electrochemical measurement unit (SI 1280, Schlumberger Technical Instruments Division, San Jose, Calif.) interfaced to a Macintosh computer (PowerMac 7100/80, Apple Computers, Cupertino, Calif.) running EISIS electrochemical experimentation software (University of California, Irvine) (THALES, a similar commercial software, can also be used). The open-circuit potential (OCP) was measured as the potential between the metal specimen and the reference electrode (Ag/AgCl), and the polarization resistance was determined as the dc limit of the impedance using the ANALEIS software developed by Mansfeld et al. (ASTM Special Technical Protocol 1154:186 (1992)). […]

[5] = system: D. vulgaris; settings: literature (Saleh 1964/Postgate 1984; Odom and Singleton 1993), suspension cultures; cited from earlier work
[6] = system: SRB (D. vulgaris) on SAE 1018 mild steel; experiment: Continuous reactor with SAE 1018 mild steel and SRB, electrochemical impedance spectroscopy
Description: A continuous reactor was used to develop biofilms on metal surfaces as previously described (Jayaraman et al., 1997c). Electrochemical impedance spectroscopy (EIS) was used to obtain impedance data in at least duplicate experiments using a Solarton-Schlumberger electrochemical measurement unit (SI 1280, Schlumberger Technical Instruments Division, San Jose, Calif.) interfaced to a Macintosh computer (PowerMac 7100/80, Apple Computers, Cupertino, Calif.) running EISIS electrochemical experimentation software (University of California, Irvine) (THALES, a similar commercial software, can also be used). The open-circuit potential (OCP) was measured as the potential between the metal specimen and the reference electrode (Ag/AgCl), and the polarization resistance was determined as the dc limit of the impedance using the ANALEIS software developed by Mansfeld et al. (ASTM Special Technical Protocol 1154:186 (1992)). Continuous culture corrosion rates were estimated from the experimental polarization resistance Rp based on the Stern-Geary equation Rp=B/Icorr, where B is a parameter depending on the Tafel slopes and icorr is the corrosion current density which can be converted into a corrosion rate using Faraday's law (Mansfeld, F., The polarization resistance technique for measuring corrosion currents, In Fontana, M. G., Staehle, R. W. (ed.), Advances in Corrosion Science and Technology, Plenum Press, New York (1976)).
A 3% (vol/vol) SRB inoculum (culture age 24–48 hours) was added to the reactor after 3 to 5 days of aerobic biofilm development. […] All antimicrobials were simultaneously added to the nutrient feed and the reactor at appropriate concentrations.

[7] = system: D. gigas; experiment: Susceptibility of SRB cultures to antibiotics and inorganics; assay type: cell-based
Protocol: as §4

[8] = system: B. subtilis WB600; experiment: Susceptibility of host strains to purified antimicrobials (plate counts); assay type: cell-based; settings: 50 μg/mL, one hour exposure at 30° C.
[9] = system: Escherichia coli; settings: 100 μg/mL; cited from earlier work
[10] = system: B. polymyxa 10401; experiment: Susceptibility of host strains to purified antimicrobials (plate counts); assay type: cell-based; settings: 50 μg/mL, one hour exposure at 30° C.
Protocol: (§5) To determine the susceptibility of the hosts B. subtilis BE1500 and B. polymyxa to the expressed antimicrobials, these strains were grown from a single colony in 25 mL of LB medium with shaking at 37° C. to an O.D600 of 0.40–0.45. One mL aliquots were collected, washed with fresh LB medium and resuspended in 100 μL fresh LB medium in sterile eppendorf tubes. The antimicrobials indolicidin and bactenecin were added (50–100 μg/mL) and the tubes were incubated at 30° C. for one hour without shaking. Appropriate dilutions were spread on LB agar plates and incubated overnight at 37° C. to determine the extent of survival. The results were confirmed by performing two independent experiments.

[11] = system: B. subtilis BE1500; experiment: as above; assay type: cell-based
Protocol: as §5

[12] = system: D. gigas (ATCC 19364); experiment: SRB inhibitory assay: viability after one-hour exposure, MPN technique; assay type: cell-based; settings: 100 μg/mL, one-hour exposure
Protocol: as §1, §2, §3

[13] = 100 μg/mL added to P. fragi K biofilm 24 hours before D. vulgaris
[14] = 100 μg/mL added to P. fragi K biofilm before D. vulgaris

CC[C@H](C)[C@H](N)C(=O)N[C@@H](CC(C)C)C(=O)N1CCC[C@H]1C(=O)N[C@@H](Cc1c[nH]c2ccccc12)C(=O)N[C@@H](CCCCN)C(=O)N[C@@H](Cc1c[nH]c2ccccc12)C(=O)N1CCC[C@H]1C(=O)N[C@@H](Cc1c[nH]c2ccccc12)C(=O)N[C@@H](Cc1c[nH]c2ccccc12)C(=O)N1CCC[C@H]1C(=O)N[C@@H](Cc1c[nH]c2ccccc12)C(=O)N[C@@H](CCCN=C(N)N)C(=O)N[C@@H](CCCN=C(N)N)C(N)=O [Ind-NH2, indolicidin]
reduction of viability ([1]; 25 μg/mL, late-exponential-phase culture): 99.3%

CC1(C)S[C@@H]2[C@H](NC(=O)[C@H](N)c3ccccc3)C(=O)N2[C@H]1C(=O)O [ampicillin]
concentration that inhibits the strain [2]: 20 µg/mL
growth of P. fragi K, in words [3]: grew to saturation
effect on D. vulgaris, in words [4, 13]: completely inhibited
time after D. vulgaris addition without change in impedance spectra and Rp [4, 14]: ≥ 100 h
effect on SRB, in words ([4]; antimicrobial added to dual-culture reactor after SRB, ampicillin 200 μg/mL, chloramphenicol 100 μg/mL, ammonium molybdate 200 μg/mL): SRB had not been killed
concentration that inhibits D. vulgaris [5]: 1 µg/mL
effect on D. vulgaris, in words [6, 13]: completely inhibited
time after D. vulgaris addition without change / increase in Rp [6, 14]: ≥ 100 h
effect on SRB, in words ([6]; antimicrobial added after SRB growth on mild steel): did not change Rp; also recorded: no inhibition of SRB
time to onset of SRB-induced corrosion after ampicillin containing medium was discontinued ([6]; mild steel reactors): ≤ 36 h

O=C1c2ccccc2C(=O)c2ccccc21 [anthraquinone]
concentration that inhibits the strain [7]: 100 µg/mL

CC[C@H](C)[C@@H]1NC(=O)[C@H](CCCNC(=N)N)NC(=O)[C@@H](NC(=O)[C@H](CC(C)C)NC(=O)[C@@H](N)CCCNC(=N)N)CSSC[C@@H](C(=O)N[C@@H](CCCNC(=N)N)C(=O)O)NC(=O)[C@H](C(C)C)NC(=O)[C@H](CCCNC(=N)N)NC(=O)[C@H]([C@@H](C)CC)NC(=O)[C@H](C(C)C)NC(=O)[C@H](C(C)C)NC1=O [bactenecin] (H-RLCRIVVIRVCR-OH; disulfide 3-11; N-terminus and C-terminus assumed)
Fold-reduction in cell number [8]: 400
inhibition [9]: 95%
Fold-reduction in cell number [10]: 2
factor by which the strain is more resistant to bactenecin than to indolicidin [11]: 60
Fold-reduction in cell number ([11]; 50 μg/mL, one hour exposure at 30° C.): 100

O=C(N[C@H](CO)[C@H](O)c1ccc([N+](=O)[O-])cc1)C(Cl)Cl [chloramphenicol]
concentration that inhibits the strain [2]: 20 µg/mL
concentration that inhibits D. vulgaris [5]: 3 µg/mL

CC[C@H](C)CCCCC(=O)N[C@@H](CCN)C(=O)N[C@H](C(=O)N[C@@H](CCN)C(=O)N[C@H]1CCNC(=O)[C@H]([C@@H](C)O)NC(=O)[C@H](CCN)NC(=O)[C@H](CCN)NC(=O)[C@H](CC(C)C)NC(=O)[C@@H](Cc2ccccc2)NC(=O)[C@H](CCN)NC1=O)[C@@H](C)O [polymyxin B] (X1-[Dab]T[Dab][Dab][Dab][dF]L[Dab][Dab]T; lactam 4-C (inferred); N-terminus assumed)
reduction of viability ([1]; 100 μg/mL): approximately 90%
reduction of viability [12]: approximately 90%
concentration that inhibits D. vulgaris [5]: 100 µg/mL

[Na+].[Na+].[O]=[Mo](=[O])([O-])[O-] [sodium molybdate]
concentration that inhibits the strain [7]: 100 µg/mL
concentration that inhibits the strain [2]: 100 µg/mL

gramicidin D
reduction of viability ([1]; 100 μg/mL): approximately 90%
reduction of viability [12]: approximately 90%
